Assay results as given in the supplement of paper PMC11208160.

Experiment: recombinant UMI read abundance after kanamycin selection (control-corrected) (log10(CPM+1)); higher = more efficient recombination; extreme values may be limits of the assay; sequences stand for … in AGTGCAGAGAAAATCGGCCAGTTTTCTCTGCCTGCAGTCCGCATGCCGTGGGACCCCTTGGGTTCTAACCTGTTGCCTAGATTTATGCAGCGGACTGCCTTTCTCCCAAAGTGATAAACCGG…AGGTTGGTTTCACT; site = the 11-nt donor
Procedure, shortened: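 Reported values are log10(CPM+1) from a pooled Escherichia coli screen of donor and donor-binding-loop pairs for the IS621 bridge recombinase. Selection used IPTG (0.07 mM) plus kanamycin, against unselected plating, each in two replicates. Recombinant UMIs were amplified across the donor–target junction, sequenced, converted to CPM, averaged over replicates and scaled by control-derived factors.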
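Also: IS621 bridge recombinase in Escherichia coli cells against a fixed T5 target plasmid.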

Row | Sequence | recombinant UMI read abundance (log10)
1 | CGAAGACCATGGACCGGTTTTCCCGGTAATCCGTATTTGGG (site CGAAGACCTCC) | 0
2 | GTTTGCGCATGGACCGGTTTTCCCGGTAATCCGTATTTGGC (site GTTTGCGCTGC) | 2.03
3 | CAGGAATCATGGACCGGTTTTCCCGGTAATCCGTATTTGCG (site TAGGAATCTCG) | 2.69
4 | GTTCATACATGGACCGGTTTTCCCGGTAATCCGTATTTGTG (site GTTCATACTCA) | 0.505
5 | GTCGCATCATGGACCGGTTTTCCCGGTAATCCGTATTTGGA (site GTCGCATCTTC) | 2.05
6 | AGAAAGGCATGGACCGGTTTTCCCGGTAATCCGTATTTGCA (site AGAAAGGCTGG) | 0
7 | CGATCTTCATGGACCGGTTTTCCCGGTAATCCGTATTTGCT (site CGATCCTCTAG) | 0.00985
8 | CGGAATCCATGGACCGGTTTTCCCGGTAATCCGTATTTGTT (site GGGAATCCTGA) | 0
9 | CCTAATGCATGGACCGGTTTTCCCGGTAATCCGTATTTGGC (site CCTAATGCTGC) | 0
10 | CCGATCTCATGGACCGGTTTTCCCGGTAATCCGTATTTGAG (site CCGATCTCTCT) | 0.00289
11 | CTGGAGTCATGGACCGGTTTTCCCGGTAATCCGTATTTGCC (site CTGGAGTCTGG) | 2.84
12 | CCTCGTACATGGACCGGTTTTCCCGGTAATCCGTATTTGGT (site CCTCGTACTAC) | 0.0115
13 | CGACCATCATGGACCGGTTTTCCCGGTAATCCGTATTTGGT (site CGACCATCTAC) | 0.825
14 | GATGTAACATGGACCGGTTTTCCCGGTAATCCGTATTTGCT (site TATGTAACTAG) | 1.83
15 | GAATGGCCATGGACCGGTTTTCCCGGTAATCCGTATTTGCA (site GAATGGTCTTG) | 0.0295
16 | GCATAGTCATGGACCGGTTTTCCCGGTAATCCGTATTTGTT (site GCATAGTCTAA) | 3.29
17 | CAGGAATCATGGACCGGTTTTCCCGGTAATCCGTATTTGCA (site CAGGAATCTTG) | 3.17
18 | ATAAACCCATGGACCGGTTTTCCCGGTAATCCGTATTTGAT (site ATAAACCCTAT) | 1.19
19 | GTATGATCATGGACCGGTTTTCCCGGTAATCCGTATTTGGG (site GTATGATCTCC) | 0.738
20 | GTATGAACATGGACCGGTTTTCCCGGTAATCCGTATTTGTA (site GTATGGACTTA) | 0.255
21 | CACTCATCATGGACCGGTTTTCCCGGTAATCCGTATTTGCC (site CACTCTTCTGG) | 0
22 | CGATCATCATGGACCGGTTTTCCCGGTAATCCGTATTTGCT (site CGATAATCTCG) | 0
23 | CAAGTATCATGGACCGGTTTTCCCGGTAATCCGTATTTGAG (site CTAGTATCTGT) | 0
24 | CCAAGCGCATGGACCGGTTTTCCCGGTAATCCGTATTTGTA (site CCAAGCGCTTA) | 1.3
25 | AGGTTCCCATGGACCGGTTTTCCCGGTAATCCGTATTTGGT (site AGGTTCCCTAC) | 0.474

Row | Sequence | recombinant UMI read abundance (log10)
26 | CGATCATCATGGACCGGTTTTCCCGGTAATCCGTATTTGCT (site CGCTCATCTAC) | 0.00488
27 | GAGCAGACATGGACCGGTTTTCCCGGTAATCCGTATTTGTG (site GAGCAGACTCA) | 1.25
28 | AAACACGCATGGACCGGTTTTCCCGGTAATCCGTATTTGGG (site AACCACGCTCC) | 0.0138
29 | GCGTACTCATGGACCGGTTTTCCCGGTAATCCGTATTTGAC (site GCGTACTCTGT) | 3.44
30 | AGGTTCACATGGACCGGTTTTCCCGGTAATCCGTATTTGTG (site AGGTTCACTCA) | 0.0184
31 | CGGAATCCATGGACCGGTTTTCCCGGTAATCCGTATTTGTT (site CCGAATTCTAA) | 0
32 | CGCCGTACATGGACCGGTTTTCCCGGTAATCCGTATTTGCT (site CGACGTACTAG) | 0.00883
33 | GCTACTGCATGGACCGGTTTTCCCGGTAATCCGTATTTGCC (site GCTACTGCTGA) | 0
34 | AGTGTAACATGGACCGGTTTTCCCGGTAATCCGTATTTGCT (site ATTGTAACTAG) | 1.12
35 | AATGTGTCATGGACCGGTTTTCCCGGTAATCCGTATTTGAG (site AATGTGTCTCT) | 1.82
36 | GCGGAGGCATGGACCGGTTTTCCCGGTAATCCGTATTTGAA (site GCGGAGGCTTT) | 1.91
37 | CGGAATCCATGGACCGGTTTTCCCGGTAATCCGTATTTGTT (site CGGAATGCTAC) | 0
38 | CGATTATCATGGACCGGTTTTCCCGGTAATCCGTATTTGCT (site CGATGATCTAG) | 0
39 | CGGTTGGCATGGACCGGTTTTCCCGGTAATCCGTATTTGCT (site CGCTTGGCTAG) | 0.00834
40 | CTTCTCTCATGGACCGGTTTTCCCGGTAATCCGTATTTGTA (site CGTCTCTCTTA) | 1.35
41 | ATATTGTCATGGACCGGTTTTCCCGGTAATCCGTATTTGTC (site ATATTGTCTGA) | 3.25
42 | TGGACCACATGGACCGGTTTTCCCGGTAATCCGTATTTGAT (site TGGACCACTAT) | 0.721
43 | TCCAACGCATGGACCGGTTTTCCCGGTAATCCGTATTTGCG (site TCCAACGCTCG) | 0.0127
44 | TCATACTCATGGACCGGTTTTCCCGGTAATCCGTATTTGAA (site TCATACTCTTT) | 1.72
45 | AGGTTTCCATGGACCGGTTTTCCCGGTAATCCGTATTTGTG (site AGGTTTCCTCA) | 0.271
46 | GGCCACGCATGGACCGGTTTTCCCGGTAATCCGTATTTGTT (site GGCCACTCTAA) | 0.0156
47 | TTCTAGGCATGGACCGGTTTTCCCGGTAATCCGTATTTGGT (site TTCTAGGCTAC) | 0.0102
48 | ATTGCAGCATGGACCGGTTTTCCCGGTAATCCGTATTTGAG (site ATTGCAGCTCT) | 1.03
49 | CCGTTCACATGGACCGGTTTTCCCGGTAATCCGTATTTGCT (site CCGTTTACTAG) | 0
50 | ATGAAGACATGGACCGGTTTTCCCGGTAATCCGTATTTGCA (site AAGAAGACTTG) | 1.29

Row | Sequence | recombinant UMI read abundance (log10)
51 | AGTAAGACATGGACCGGTTTTCCCGGTAATCCGTATTTGCA (site AGCAAGACTTG) | 2.39
52 | ACTATTGCATGGACCGGTTTTCCCGGTAATCCGTATTTGGT (site ACTAATGCTAC) | 0.108
53 | CGTGGACCATGGACCGGTTTTCCCGGTAATCCGTATTTGTT (site CGTGGATCTAA) | 0.722
54 | TTGGCGTCATGGACCGGTTTTCCCGGTAATCCGTATTTGTC (site TTGGCGTCTGA) | 1.13
55 | ACATCTACATGGACCGGTTTTCCCGGTAATCCGTATTTGTG (site CCATCTACTCA) | 0.465
56 | TAACGTCCATGGACCGGTTTTCCCGGTAATCCGTATTTGTA (site TAATGTCCTTA) | 0.00898
57 | GAATGGCCATGGACCGGTTTTCCCGGTAATCCGTATTTGCA (site TAATGGCCTTG) | 0.00558
58 | CAAGCGCCATGGACCGGTTTTCCCGGTAATCCGTATTTGTG (site CAAGCGCCTAA) | 0.00762
59 | CACTTGACATGGACCGGTTTTCCCGGTAATCCGTATTTGCT (site CACTTGACTAG) | 2.31
60 | TAAAGTCCATGGACCGGTTTTCCCGGTAATCCGTATTTGTA (site TAAAGTCCTGA) | 0
61 | GGCCATCCATGGACCGGTTTTCCCGGTAATCCGTATTTGAA (site GGCTATCCTTT) | 0.0589
62 | TGCACCACATGGACCGGTTTTCCCGGTAATCCGTATTTGCT (site TGCACCACTAG) | 1.3
63 | TTAGCTGCATGGACCGGTTTTCCCGGTAATCCGTATTTGTT (site TTAGCTGCTAA) | 1.08
64 | TGGTCGGCATGGACCGGTTTTCCCGGTAATCCGTATTTGGC (site TGGGCGGCTGC) | 0.00726
65 | TCAGATACATGGACCGGTTTTCCCGGTAATCCGTATTTGCG (site TCAGAGACTCG) | 0.00723
66 | CGTTAGACATGGACCGGTTTTCCCGGTAATCCGTATTTGAG (site AGTTAGACTCT) | 0.0858
67 | AAACACGCATGGACCGGTTTTCCCGGTAATCCGTATTTGGG (site AAGCACGCTCC) | 0.0101
68 | GTTTTTCCATGGACCGGTTTTCCCGGTAATCCGTATTTGGT (site GTTGTTCCTAC) | 0.0239
69 | GGGGCACCATGGACCGGTTTTCCCGGTAATCCGTATTTGGA (site GGGGCACCTTA) | 0
70 | TCCTAGCCATGGACCGGTTTTCCCGGTAATCCGTATTTGTA (site TCCTAGCCTTA) | 0.0223
71 | GGGCCTACATGGACCGGTTTTCCCGGTAATCCGTATTTGCT (site GGGCCTACTAG) | 1.86
72 | AATGCAACATGGACCGGTTTTCCCGGTAATCCGTATTTGCT (site AATGAAACTAG) | 0
73 | AGGGTCCCATGGACCGGTTTTCCCGGTAATCCGTATTTGTG (site AGGATCCCTCA) | 0.239
74 | CGCCGTGCATGGACCGGTTTTCCCGGTAATCCGTATTTGCT (site CGCCGTTCTAG) | 0.0147
75 | TGTACCCCATGGACCGGTTTTCCCGGTAATCCGTATTTGTA (site TGTGCCCCTTA) | 0
